Experiments:
LPS-induced TNFα = assay: 28-day mouse side-effect model, LPS-induced serum TNFα suppression; assay type: in vivo; details: oral gavage 28 days, LPS challenge
Experimental: (§1) 10-12 week old female Swiss Webster mice (Taconic, Germantown, N.Y., U.S.A.) weighing 27-29 grams are used in accordance with the guidelines of the Institutional Animal Care and Use Committee and in accordance with NIH guidelines on laboratory animal welfare. Mice are acclimated to the Pfizer animal facility for 3-7 days prior to being placed on study. Prednisolone and DAGR compounds are administered by oral gavage for a total of 28 days. Each treatment group generally contains 8-10 mice. To establish a dosing regimen for the studies, a pilot pharmacodynamic time course experiment is conducted to quantify TNFa repression after a single ED80 dose (determined from the acute LPS endotoxemia mouse model). […] DAGR compounds vary in their required frequency of doses.
(§2) Body weights are measured on the first and last day of each experiment. Blood samples are obtained after ˜3 weeks of dosing for steady-state pharmacokinetic analysis. To assess compound effects on LPS-induced TNF-a, all mice receive an intraperitoneal injection of LPS (Salmonella Typhosa, Sigma, St. Louis, L-7895) 2.5 hr after the last dose on day 28. Mice are sacrificed 90 min. after LPS administration. Serum samples are assayed for osteocalcin and TNFa using the Linco multiplex assay (St. Charles, Mo.) and Luminex 100 (Austin, Tex.). Samples are diluted 1:20 and the assay is run according to manufacturer's instructions. An osteocalcin standard is purchased separately from Biomedical Technologies Incorporated (Stoughton, Mass.). Serum insulin is measured to assess compound effects on insulin resistance. Insulin was measured using the UltraSensitive Mouse EIA kit from Alpco Diagnostics (Salem, N.H.) following the manufacturer's protocol.
(§3) ED50 and ED80 values are obtained for the various parameters using four-parameter logistic fits of data. For each experiment/dose group, outliers are detected by calculating the number of standard deviations each mouse's value was from the mean of their group and then dividing by the standard deviation of the group. The means and standard deviations used in this calculation omitted the value being examined so that, if it were an outlier, it would have no influence. If the value being examined is more than 2.5 standard deviations from the mean, it was not used in the rest of the calculations.
(§4) Percent inhibition values are then calculated for each animal using the means of the vehicle and 10 mpk prednisone control groups. The individual mouse percent inhibition values are then fit to a four-parameter logistic model using the area under curve mean for each group. Since all four parameters are estimated and the lower plateau is not fixed at 0% and the upper plateau was not fixed at 100%, the ED50 and ED80 values are calculated by using an inverse calibration formula for a response equal to 50% or 80%. The designation “nd” means not determined.

osteocalcin = assay: 28-day mouse side-effect model, serum osteocalcin suppression; assay type: in vivo; details: oral gavage 28 days
Experimental: as §1, §2, §3, §4

serum insulin = assay: 28-day mouse side-effect model, serum insulin; assay type: in vivo; details: oral gavage 28 days
Experimental: as §1, §2, §3, §4

IFNγ = assay: LPS-induced human whole blood, IFNγ release; assay type: cell-based; details: for IFNγ (% inhibition) / inhibition at 3 µM: 3000 nM; for IFNγ (% inhibition): 3 µM; for inhibition at 0.00137174 µM: 1.371742 nM; for inhibition at 0.00411523 µM: 4.115226 nM; for inhibition at 0.0123457 µM: 12.34568 nM; for inhibition at 0.037037 µM: 37.03704 nM; for inhibition at 0.111111 µM: 111.1111 nM; for inhibition at 0.333333 µM: 333.3333 nM; for inhibition at 1 µM: 1000 nM
Experimental: (§5) Venous blood from human donors was collected as 10 ml aliquots in tubes containing sodium heparin (BD Vacutainer from Becton Dickinson and Company, Franklin Lakes, N.Y.). Blood was added to sterile polystyrene round bottom 96-well tissue culture plates (Corning Costar) at 180 Blood was placed in a humidified 37 C incubator with 5% CO2 while compounds were prepared (nearly 60 minutes).
(§6) Compounds were prepared from 10 mM stock solutions in dimethylsulfoxide (DMSO, Sigma-Aldrich). Stock compound was diluted in DMSO to give appropriate starting concentration then diluted serially 1/3 in DMSO (i.e. 15 μl compound+30 μl DMSO), followed by diluting each serial dilution 1/167 into vehicle solution (2% DMSO in phosphate buffered saline (Dulbecco's Phosphate Buffered Saline without calcium chloride without magnesium chloride, Invitrogen Corporation, Carlsbad Calif.)). Compound or vehicle was added to blood in 10 μl aliquots as triplicates, omitting the outside wells to minimize possible edge effects. The final highest concentration of each compound in the assay ranged from 3 to 0.3 μM. Final DMSO concentration in the assay was 0.1%. The plate containing the samples was gently vortexed to mix and replaced in the incubator. LPS stock (E. coli serotype 0111:B4, Sigma-Aldrich), stored in aliquots of 100 μg/ml in RPMI at −20° C., was diluted […] in RPMI to make a working stock solution. After 60 minutes of incubation, 10 μl of the prepared LPS working stock was added to the blood to a final concentration of 100 ng/ml. Wells to be used as negative control received RPMI media with no LPS. The plate was again gently vortexed and the plates incubated overnight for 22 hours. Following incubation, the blood was centrifuged at 1500×g for 5 minutes and the plasma removed to either freeze at −20° C. or assay for cytokine release.
(§7) IL-1β, IFNγ and TNFα protein levels were measured using Meso Scale assay kits (Meso Scale Discovery, Gaithersburg, Md., U.S.A.). Reagents were allowed to come to room temperature. Meso Scale plates were blocked with 150 μl of Meso Scale Block B diluent, gently shaking at room temperature for 60 minutes. Plates were washed 3× with wash buffer (PBS, Invitrogen Corporation, with 0.05% Tween-20, Sigma-Aldrich). Calibrators for standard curves were prepared in human plasma/serum assay diluent as a 1/5 serial dilution to achieve final concentrations ranging from 50000 pg/ml to 3.2 pg/ml. Samples were added at 10 to 20 μl/well and calibrators were added at 20 μl/well then incubated at room temperature with gentle shaking for 2 hours. Plates were again washed 3× with wash buffer. Detection antibody was diluted in human plasma/serum antibody diluent to 1 μg/ml and added to the plate at 20 μl/well. Plates were incubated as before for 2 hours and washed again. Read Buffer T (4×) was diluted 1:1 with mqH20 to 2× concentration and 150 μl added to each well. Plates were read on the SECTOR Imager 6000 (Meso Scale Discovery) to generate raw signal values.
(§8) Individual sample signal values were compared to positive and negative controls (vehicle treated blood with LPS and vehicle treated blood without LPS, respectively) to generate % inhibition. Triplicate values were averaged for each donor. The values for three or four donors were averaged and graphed using 4-parameter fit curves in the LabStats plug-in for the Microsoft Excel application.

TNFα = assay: LPS-induced human whole blood, TNFα release; assay type: cell-based; details: for inhibition at 0.00137174 µM: 1.371742 nM; for inhibition at 0.00411523 µM: 4.115226 nM; for inhibition at 0.0123457 µM: 12.34568 nM; for inhibition at 0.037037 µM: 37.03704 nM; for inhibition at 0.111111 µM: 111.1111 nM; for inhibition at 0.333333 µM: 333.3333 nM; for inhibition at 1 µM: 1000 nM
Experimental: as §5, §6, §7, §8

IL-1β = assay: LPS-induced human whole blood, IL-1β release; assay type: cell-based; details: for inhibition at 0.00137174 µM: 1.371742 nM; for inhibition at 0.00411523 µM: 4.115226 nM; for inhibition at 0.0123457 µM: 12.34568 nM; for inhibition at 0.037037 µM: 37.03704 nM; for inhibition at 0.111111 µM: 111.1111 nM; for inhibition at 0.333333 µM: 333.3333 nM; for inhibition at 1 µM: 1000 nM
Experimental: as §5, §6, §7, §8

[1] = Homo sapiens, 3000 nM, mean of donors
[2] = Homo sapiens, 0.457247 nM, mean of donors
[3] = ex vivo LPS-stimulated human whole blood, extent of inhibition, concentration not given

SMILES	inhibition at 0.00137174 µM (IFNγ; Homo sapiens, mean of donors) [%]	inhibition at 0.00411523 µM (IFNγ; Homo sapiens, mean of donors) [%]	inhibition at 0.0123457 µM (IFNγ; Homo sapiens, mean of donors) [%]	inhibition at 0.037037 µM (IFNγ; Homo sapiens, mean of donors) [%]	inhibition at 0.111111 µM (IFNγ; Homo sapiens, mean of donors) [%]	inhibition at 0.333333 µM (IFNγ; Homo sapiens, mean of donors) [%]	inhibition at 1 µM (IFNγ; Homo sapiens, mean of donors) [%]	inhibition at 0.00137174 µM (TNFα; Homo sapiens, mean of donors) [%]	inhibition at 0.00411523 µM (TNFα; Homo sapiens, mean of donors) [%]	inhibition at 0.0123457 µM (TNFα; Homo sapiens, mean of donors) [%]	inhibition at 0.037037 µM (TNFα; Homo sapiens, mean of donors) [%]	inhibition at 0.111111 µM (TNFα; Homo sapiens, mean of donors) [%]	inhibition at 0.333333 µM (TNFα; Homo sapiens, mean of donors) [%]	inhibition at 1 µM (TNFα; Homo sapiens, mean of donors) [%]	inhibition at 0.00137174 µM (IL-1β; Homo sapiens, mean of donors) [%]	inhibition at 0.00411523 µM (IL-1β; Homo sapiens, mean of donors) [%]	inhibition at 0.0123457 µM (IL-1β; Homo sapiens, mean of donors) [%]	inhibition at 0.037037 µM (IL-1β; Homo sapiens, mean of donors) [%]	inhibition at 0.111111 µM (IL-1β; Homo sapiens, mean of donors) [%]	inhibition at 0.333333 µM (IL-1β; Homo sapiens, mean of donors) [%]	further results
Cc1nc(Br)ccc1NC(=O)c1ccc2c(c1)CC[C@@H]1C[C@@](O)(c3ccccc3)[C@](C)(O)C[C@@]21Cc1ccccc1 [Comparator B, (4bR,6R,7R,8aR)-4b-benzyl-N-(6-bromo-2-methylpyridin-3-yl)-6,7-dihydroxy-6-methyl-7-phenyl-4b,5,6,7,8,8a,9,10-octahydrophenanthrene-2-carboxamide]	–	–	–	–	–	–	–	–	–	–	–	–	–	–	–	–	–	–	–	–	ED50 (LPS-induced TNFα; 672 h, read-out: TNFα Suppression (ED50 dose)): 0.083 mg/kg; TNFα Suppression (ED80 dose) (LPS-induced TNFα): 0.45; ED50 at 28 days (osteocalcin; female, Swiss Webster, read-out: Osteocalcin Suppression (ED50 dose)): 0.21 mg/kg; Osteocalcin Suppression (ED80 dose) (osteocalcin): 0.97; ED50 at 28 days (serum insulin; female, Swiss Webster, read-out: Insulin (ED50 dose)): 1.04 mg/kg; Insulin (ED80 dose) (serum insulin): 7.58
Oc1ccc2c(c1)CC[C@@H]1C[C@@](O)(c3ccccc3)[C@@H](O)C[C@@]21Cc1ccccc1 [Comparator F, (2R,3S,4aR,10aR)-4a-Benzyl-2-phenyl-1,2,3,4,4a,9,10,10a-octahydrophenanthrene-2,3,7-triol]	-12.4	-15.3	-8.35	-13.4	-4.6	-3.3	14.6	-2.51	-8.12	-6.79	-4.23	-6.35	-3.43	4.14	-4.16	-6.16	-5.49	-6.15	-4.59	-2.45	IFNγ (% inhibition) (IFNγ; mean of donors): 21.96%; inhibition at 3 µM (IFNγ; Homo sapiens, mean of donors): 22%; inhibition at 1 µM (IL-1β; Homo sapiens, mean of donors): 0.22%
Cc1ncccc1COc1ccc2c(c1)CC[C@@H]1C[C@@](O)(c3ccccc3)[C@@H](O)C[C@@]21Cc1ccccc1 [Comparator G, (2R,3S,4aR,10aR)-4a-Benzyl-7(2-methyulpyridin-3-ylmethoxy)-2-phenyl-1,2,3,4,4a,9,10,10a-octahydrophenanthrene-2,3 diol]	16.7	12.8	-9.15	-2.58	2.66	2.02	13.2	3.22	-2.9	-14	-13.9	-8.76	-13.8	-8.47	-0.115	-2.64	-7.52	-7.35	-5.37	-6.75	IFNγ (% inhibition) (IFNγ; mean of donors): 41.3796%; inhibition at 3 µM (IFNγ; Homo sapiens, mean of donors): 41%; inhibition at 3 µM (TNFα; [1]): < 20%; inhibition at 1 µM (IL-1β; Homo sapiens, mean of donors): -1.19%; inhibition at 3 µM (IL-1β; [1]): < 20%
C[C@]12C=CC(=O)C=C1CC[C@@H]1[C@@H]2[C@@H](O)C[C@@]2(C)[C@H]1CC[C@]2(O)C(=O)CO [Prednisolone]	9.75	25.2	34.7	70.7	85.2	94.8	96.4	6.36	8.95	19.6	49.2	67.1	86.9	90.4	-1.26	0.84	7.17	36.7	61.9	87.6	inhibition at 0.000457247 µM (IFNγ; [2]): 1.19%; level of inhibition of IFN (IFNγ; [3]): full inhibition; inhibition at 0.000457247 µM (TNFα; [2]): 2.76%; level of inhibition of TNF (TNFα; [3]): full inhibition; inhibition at 0.000457247 µM (IL-1β; [2]): -0.571%; inhibition at 1 µM (IL-1β; Homo sapiens, mean of donors): 91.8%; level of inhibition of IL-1 (IL-1β; [3]): full inhibition
